Measurements published in publication PMC11239005, “Preclinical studies of RA475, a guanidine-substituted spirocyclic candidate RPN13/ADRM1 inhibitor for treatment of ovarian cancer” (PLOS ONE, 2024).
Several values for one entry are separate records, joined by “and”; a condition that tells them apart may be missing. Identical values can stand only once. Like-named read-outs stand apart in the source and are kept apart here.

Test: Single dose plasma pharmacokinetics in CD1 mice
Type: in vivo, mouse
Protocol: For single dose pharmacokinetic studies, plasma samples (40 μL) were mixed with 200 μL of a water-methanol (1:9, v/v) containing the internal standard elacridar at 80 ng/mL. After mixing by pipetting and centrifuging for 4 min at 5500 x g, 0.25 μL of the supernatant was injected into LC-MS/MS system. […] Mobile phase A was acetonitrile/water (5:95, v/v) containing 1% formic acid, and mobile phase B was acetonitrile containing 0.1% formic acid. The gradient was initiated with mobile phase B at 10% with a flow rate of 0.4 mL/min, increased to 100% over 0.9 min and then and held for 0.1 min, and returned back to 10% mobile phase B and allowed to equilibrate until 2.2 min. An SCIEX 5000 triple quadrupole mass spectrometer operated in positive electrospray ionization mode was used for the detection of RA475. The lower limit of quantitation (LLOQ) in plasma was 10 ng/mL.
Pharmacokinetic parameters were calculated from mean concentration-time data using non-compartmental methods in Phoenix WinNonlin version 8.3 (Certara, Princeton, NJ). Concentrations after the time 0 sample that were below the LLOQ were imputed with ½ that value (1 ng/mL). Any concentration that was determined to be an outlier by the Grubbs’s outlier test were excluded from analysis. The maximum plasma concentration (Cmax) and time to Cmax (Tmax) were the observed values. The AUClast was calculated using the log-linear trapezoidal method. AUC was extrapolated to infinity (AUCINF) by dividing the last quantifiable concentration by the terminal disposition rate constant (λz). The λz was determined from at least 3 points on the slope of the terminal phase of the concentration-time profile. The terminal half-life (T1/2) was determined by dividing 0.693 by λz. Clearance (Cl) or apparent Cl (Cl/F) was calculated by dividing the dose administered by AUCINF. Volume of distribution (V) or apparent V (V/F) was calculated by dividing Cl or Cl/F by λz. […] The oral and IP bioavailability was calculated as: F(%)=DoseIV×AUCINFPO/DosePO×[…].100%
The Method of Bailer was used to estimate the variance of AUC given the calculated variance of the mean concentration at each time point. A pairwise comparison utilizing Z test was used to determine whether there was a significant difference between RA475 exposures as expressed by AUC last. Additionally, the Up284 exposure was truncated to 8 h and compared to the same route of administration and exposure as RA475. In all cases, p < 0.05 was considered statistically significant.
CD1 (n = 4 per time point and condition; 8 weeks old, 26.8±3g) mice were administered a single dose of RA475, either IV (10 mg/kg), PO (40 mg/kg), or IP (40 mg/kg), and thereafter serial blood plasma samples were analyzed for RA475 levels by LC–MS/MS. The animals were randomly assigned to the treatment groups (S9 Table) and fasted for 4 h before dosing. Eight time points for IV and IP (0.083, 0.25, 0.5, 1, 2, 4, 6, and 8 h) and seven time points for PO (0.25, 0.5, 1, 2, 4, 6, and 8) administration were set for this pharmacokinetic study. Mice were injected IP with 2,2,2-tribromoethanol at the dose of 150 mg/kg prior to drawing the blood in microtainers containing K3EDTA via retro-orbital bleeding. Blood samples were centrifuged 10 min at 3000 rpm. All samples were immediately processed, flash-frozen and stored at -70°C until subsequent analysis. No obvious adverse effects were observed during this PK study. The average RA475 plasma concentrations data for IV, IP, and PO dosed groups (S10–S12 Tables) is graphically presented in Fig 4, and may be compared to published data for Up284 [37]. Pharmacokinetic parameters were calculated from mean concentration-time data using non-compartmental methods in Phoenix WinNonlin version 8.3 (Certara, Princeton, NJ) (S13 Table). Using the Method of Bailer, there was no difference in dose normalized AUClast by any route of administration of RA475.

[1] = male, CD1, mouse, plasma, ip, 40 mg/kg, IP 40 mg/Kg
[2] = male, CD1, mouse, plasma, po, 40 mg/kg, PO 40 mg/Kg
[3] = male, CD1, mouse, plasma, IP 40 mg/kg
[4] = male, CD1, mouse, plasma, IV 10 mg/kg
[5] = male, CD1, mouse, plasma, PO 40 mg/kg

`Cl.Cl.N#Cc1ccc(/C=C2/C(=O)/C(=C/c3ccc(C#N)cc3)C23CCN(C(=N)N)CC3)cc1` [RA475, 1,3-bis((E)-4-cyanobenzylidene)-2-oxo-7-azaspiro[3.5]nonane-7-carboximidamide dihydrochloride] showed a concentration at 360 min (CD1, mouse, plasma, ip, 40 mg/kg, IP 40 mg/Kg, 360 min, read-out: Plasma concentration, Group A-D) of 327 ng/mL, a bioavailability (CD1, mouse, plasma, IP 40 mg/kg) of 103% and a bioavailability (CD1, mouse, plasma, PO 40 mg/kg) of 1.1%. The “Plasma concentration, Group A-D” value (IP 40 mg/Kg, 240 min, 40 mg/kg) was 484 ng/mL and 577 ng/mL and 614 ng/mL, the “Plasma concentration, Group A-D” value (IP 40 mg/Kg, 480 min, 40 mg/kg) was 118 ng/mL and 174 ng/mL and 125 ng/mL and the “Plasma concentration, Group A-D” value (PO 40 mg/Kg, 30 min, 40 mg/kg) was 60 ng/mL and 57 ng/mL and 52 ng/mL. For the same molecule, the “Plasma concentration, Group A-D” value (PO 40 mg/Kg, 60 min, 40 mg/kg) was 33 ng/mL and 35 ng/mL and 44 ng/mL, the “Plasma concentration, Mean” value (PO 40 mg/Kg, 240 min) was “BQL” and the “Plasma concentration, Mean” value (PO 40 mg/Kg, 360 min) was “BQL”. For the same molecule, the “Plasma concentration, Group A-D” value (PO 40 mg/Kg, 360 min, LLOQ 10 ng/mL) was “BQL”, the “Plasma concentration, Mean” value (PO 40 mg/Kg, 480 min) was “BQL” and the “Plasma concentration, Group A-D” value (PO 40 mg/Kg, 480 min, LLOQ 10 ng/mL) was “BQL”. For the same molecule, the “dose-normalized Cmax, fold higher than Up284” value (RA475 vs Up284) was 2.3 fold, the concentration at 15 min [1] was 11500 ng/mL and the concentration at 30 min (male, CD1, mouse, plasma, ip, 40 mg/kg, IP 40 mg/Kg, 30 min, read-out: Plasma concentration, Mean) was 9350 ng/mL. The concentration at 60 min (male, CD1, mouse, plasma, ip, 40 mg/kg, IP 40 mg/Kg, 60 min, read-out: Plasma concentration, Mean) was 3580 ng/mL, the concentration at 120 min [1] was 969 ng/mL and the concentration at 240 min (male, CD1, mouse, plasma, ip, 40 mg/kg, IP 40 mg/Kg, 240 min, read-out: Plasma concentration, Group A-D) was 356 ng/mL. For the same molecule, the concentration at 240 min (male, CD1, mouse, plasma, ip, 40 mg/kg, IP 40 mg/Kg, 240 min, read-out: Plasma concentration, Mean) was 508 ng/mL, the concentration at 360 min (male, CD1, mouse, plasma, ip, 40 mg/kg, IP 40 mg/Kg, 360 min, read-out: Plasma concentration, Mean) was 125 ng/mL and the concentration at 480 min (male, CD1, mouse, plasma, ip, 40 mg/kg, IP 40 mg/Kg, 480 min, read-out: Plasma concentration, Group A-D) was 105 ng/mL. It also gave a concentration at 480 min (male, CD1, mouse, plasma, ip, 40 mg/kg, IP 40 mg/Kg, 480 min, read-out: Plasma concentration, Mean) of 131 ng/mL, a concentration at 15 min [2] of 141 ng/mL and a concentration at 30 min (male, CD1, mouse, plasma, po, 40 mg/kg, PO 40 mg/Kg, 30 min, read-out: Plasma concentration, Group A-D) of 69 ng/mL. It also gave a concentration at 30 min (male, CD1, mouse, plasma, po, 40 mg/kg, PO 40 mg/Kg, 30 min, read-out: Plasma concentration, Mean) of 60 ng/mL, a concentration at 60 min (male, CD1, mouse, plasma, po, 40 mg/kg, PO 40 mg/Kg, 60 min, read-out: Plasma concentration, Group A-D) of 29 ng/mL and a concentration at 60 min (male, CD1, mouse, plasma, po, 40 mg/kg, PO 40 mg/Kg, 60 min, read-out: Plasma concentration, Mean) of 35 ng/mL. For the same molecule, the concentration at 120 min [2] was 20 ng/mL, the concentration at 240 min (male, CD1, mouse, plasma, po, 40 mg/kg, PO 40 mg/Kg, 240 min, LLOQ 10 ng/mL, read-out: Plasma concentration, Group A-D) was 20 ng/mL and the AUC(0-t) [3] was 11300 ng·h/mL. It also gave a Cmax [3] of 11500 ng/mL, a Tmax [3] of 15 min and an AUC(0-inf) [4] of 2780 ng·h/mL. The AUC(0-t) [4] was 2730 ng·h/mL, the Cmax [4] was 10500 ng/mL and the half-life [4] was 126 min. It also gave an AUC(0-inf) [5] of 139 ng·h/mL, an AUC(0-t) [5] of 118 ng·h/mL and a Cmax [5] of 142 ng/mL. The Tmax [5] was 15 min, the half-life [5] was 96 min and the CL/F (male, CD1, mouse, plasma, PO 40 mg/kg, read-out: Cl or Cl/F (converted)) was 289 L/h/kg. The Tmax (mouse, plasma, IV 10 mg/kg, male CD1 mice) was 4.98 min, the “Cl or Cl/F” value (plasma, IV 10 mg/kg) was 0.216 L/h/kg and the “V or V/F” value (plasma, IV 10 mg/kg) was 10.9 L/kg. For the same molecule, the “V or V/F” value (plasma, PO 40 mg/kg) was 668.1 L/kg.
